This note sets out measurements from patent publication US7312306B2, “Substituted heterocyclic acyl-tripeptides useful as thrombin receptor modulators” (Ortho-McNeil Pharmaceutical, Inc., priority 1998, dated 2007).

Read-outs that look alike come from different tables or passages of the source. Starred links: 1 amine or outer side, 2 acyl side, 3 side chain; linkers in the order of their positions; H or OH if unused. Non-standard residues stand in square brackets, D forms with d. Residues, ends and D or L forms follow the SMILES beside them. ξ: configuration not given here. Triazole(1,2,4-3-CO,5-NH) = O=C(c1n[nH]c(N[*:1])n1)[*:2]; Phe(4-F) = N[CH](Cc1ccc(F)cc1)C(=O)O; ξNip = O=C(C1CCCN([*:1])C1)[*:2]; Cha = N[CH](CC1CCCCC1)C(=O)O

Assay [1] relates to gel-filtered platelets aggregation induced by thrombin. Briefly: Inhibition of thrombin-induced gel-filtered platelet aggregation assay. In kind it is cell-based. The note with it: Homo sapiens. The procedure:
(§1) In Vitro Agonist Platelet Aggregation Assay/Inhibition of Thrombin-induced Gel-filtered Platelet Aggregation Assay
(§2) The percentage of platelet aggregation is calculated as an increase in light transmission of compound-treated platelet concentrate vs. control-treated platelet concentrate. Human blood is obtained from drug free, normal donors into tubes containing 0.13 M sodium citrate. Platelet rich plasma (PRP) is collected by centrifugation of whole blood at 200×g for 10 min at 25° C. The PRP (5 mL) is gel filtered through Sepharose 2B (bed volume 50 mL), and the platelet count is adjusted to 2×10^7 platelets per sample. The following constituents are added to a siliconized cuvette: concentrated platelet filtrate and Tyrode's buffer (0.14 M NaCl, 0.0027 M KCl, 0.012 M NaHCO3, 0.76 mM Na2HPO4, 0.0055 M glucose, 2 mg/mL BSA and 5.0 mM HEPES @ pH 7.4) in an amount equal to 350 l, 50 l of 20 mM calcium and 50 l of the test compound. Aggregation is monitored in a BIODATA aggregometer for the 3 min following the addition of agonist (thrombin 50 l of 1 unit/mL).

In assay [2] the test system is platelet aggregation. Description: In vitro agonist platelet aggregation assay (gel-filtered platelets). In kind it is cell-based, Human. On the procedure: as §1, §2
Setting [3] is: gel-filtered platelets aggregation induced by thrombin, Table 2, read-out: IC50 (M), inhibition of platelet aggregation.
Where [4] appears, read: Homo sapiens, read-out: EC50 (M), EC50 values for platelet aggregation.
Setting [5] is: agonist activity, human gel-filtered platelets, Table 1, read-out: EC50 (M), EC50 values for platelet aggregation.

Usually IC50 stands for the midpoint of a concentration-inhibition curve. For the compound `N=C(N)NCCC[C@H](NC(=O)[C@H](CC1CCCCC1)NC(=O)c1cc2ccccc2s1)C(=O)N[C@@H](Cc1ccccc1)C(N)=O` [Compound 37], in assay [1] (setting [3]), the IC50 came to 2.1e-05 M.

As a reminder, the EC50 is the concentration that produces a half-maximal response. For the compound `N=C(N)NCCCC(NC(=O)C(Cc1ccccc1)NC(=O)C(CCCNC(=N)N)NC(=O)C(CC1CCCCC1)NC(=O)c1n[nH]c(N)n1)C(N)=O` (centres unmarked) [Compound 9] ({Triazole(1,2,4-3-CO,5-NH)}-[Cha]RFR-NH2; configuration not given here), in assay [2] (setting [4]), the EC50 was found to be 1.21e-06 M.

Regarding `N=C(N)NCCC[C@H](NC(=O)[C@H](CC1CCCCC1)NS(=O)(=O)c1ccc2ccccc2c1)C(=O)N[C@@H](Cc1ccccc1)C(N)=O` [Compound 43], in assay [1] (setting [3]), the IC50 was 1.25e-05 M.

On to `Cc1c(S(=O)(=O)N[C@@H](CC2CCCCC2)C(=O)N[C@@H](CCCNC(=N)N)C(=O)N[C@@H](Cc2ccccc2)C(N)=O)sc2ccc(Cl)cc12` [Compound 36], for which the IC50 in assay [1] (setting [3]) is 8.4e-06 M.

As for `N=C(N)NCCCC(NC(=O)C(CC1CCCCC1)NC(=O)c1n[nH]c(NC(=O)C(=Cc2ccccc2)c2ccccc2)n1)C(=O)NC(Cc1ccccc1)C(N)=O` (centres unmarked) [Compound 34], the 50% inhibitory concentration (IC50) in assay [1] (setting [3]) was determined as 1.9e-05 M.

Turning to `N=C(N)NCCCC(NC(=O)C(CC1CCCCC1)NC(=O)c1n[nH]c(NC(=O)C(F)=Cc2ccccc2)n1)C(=O)NC(Cc1ccccc1)C(N)=O` (centres unmarked) [Compound 12], the EC50 in assay [2] (setting [5]) came out at 1.72e-06 M.

Consider `N=C(N)NCCCC(NC(=O)C(CC1CCCCC1)NC(=O)c1n[nH]c(NC(=O)C=Cc2ccc(F)cc2)n1)C(=O)NC(Cc1ccccc1)C(N)=O` (centres unmarked) [Compound 26], for which, in assay [1] (read-out: IC50 (M), inhibition of platelet aggregation), the IC50 turned out to be 1.3e-05 M. Also, the concentration giving a half-maximal response (EC50) in assay [2] (setting [4]) was 7.9e-06 M.

As for `N=C(N)NCCCC(NC(=O)C(CC1CCCCC1)NC(=O)C1CCCN(C(=O)C(N)Cc2ccc(F)cc2)C1)C(=O)NC(Cc1ccccc1)C(N)=O` (centres unmarked) [Compound 32] (H-[Phe(4-F)][ξNip][Cha]RF-NH2; configuration not given here), the EC50 in assay [2] (setting [5]) turned out to be 2.6e-05 M.

With `N=C(N)NCCC[C@H](NC(=O)[C@H](CC1CCCCC1)NC(=O)c1n[nH]c(N)n1)C(=O)N[C@@H](Cc1ccccc1)C(N)=O` [Compound 1], the 50% effective concentration (EC50) in assay [2] (setting [5]) was 7.5e-07 M.

For the compound `N=C(N)NCCC[C@H](NC(=O)[C@H](CC1CCCCC1)NC(=O)c1ccc2[nH]cnc2c1)C(=O)N[C@@H](Cc1ccccc1)C(N)=O` [Compound 41], the concentration for a half-maximal effect (EC50) in assay [2] (setting [5]) is 4e-06 M.
